In the assay the test system is L1210 leukemia ip in BDF1 mice, survival T/C. The experiment in a line: NCI In Vivo Anticancer Drug Screen. Data for tumor model L1210 Leukemia (intraperitoneal) in B6D2F1 (BDF1) mice. The settings on record: endpoint: mean survival time, higher = longer survival. A digest of the protocol:
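Each compound was tested against a transplantable tumor grown in mice. The endpoint was survival, with treated animals benchmarked against vehicle controls as a simple ratio.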

The mark [1] stands for this setting: dose: 25.0 mg/kg/injection, schedule: Q01DX009 (ip), vehicle: saline.
The mark [2] stands for this setting: dose: 50.0 mg/kg/injection, schedule: Q01DX009 (ip), vehicle: saline.
[3] abbreviates: dose: 50.0 mg/kg/injection, schedule: Q04DX002 (ip), vehicle: saline.
Where [4] appears, read: dose: 100.0 mg/kg/injection, schedule: Q04DX002 (ip), vehicle: saline.
[5] abbreviates: dose: 100.0 mg/kg/injection, schedule: Q04DX003 (ip), vehicle: saline with Tween-80.
The mark [6] stands for this setting: dose: 200.0 mg/kg/injection, schedule: Q04DX003 (ip), vehicle: saline with Tween-80.
[7] abbreviates: dose: 25.0 mg/kg/injection, schedule: Q01DX009 (ip), vehicle: Klucel (hydroxypropylcellulose) (HPC).
Setting [8] is: dose: 50.0 mg/kg/injection, schedule: Q01DX009 (ip), vehicle: Klucel (hydroxypropylcellulose) (HPC).
The mark [9] stands for this setting: dose: 100.0 mg/kg/injection, schedule: Q01DX009 (ip), vehicle: Klucel (hydroxypropylcellulose) (HPC).
Setting [10] is: dose: 100.0 mg/kg/injection, schedule: Q04DX002 (ip), vehicle: Klucel (hydroxypropylcellulose) (HPC).
Setting [11] is: dose: 100.0 mg/kg/injection, schedule: Q01DX001 (ip), vehicle: carboxymethylcellulose (CMC).
The mark [12] stands for this setting: dose: 200.0 mg/kg/injection, schedule: Q01DX001 (ip), vehicle: carboxymethylcellulose (CMC).

Drawing on PubChem BioAssay AID248 (DTP/NCI, 2004), this text covers T/C for 14 compounds.

Several values for one entry are separate records, joined by “and”; a condition that tells them apart may be missing. Equal entries are not always repeated. Toxic doses and inconclusive results are not listed.

Consider `COc1ccc2c(c1)C(=O)CC(C)N2S(=O)(=O)c1ccc(C)cc1` (stereo not drawn), for which the T/C runs as follows: (dose: 18.75 mg/kg/injection, schedule: Q04DX002 (ip), vehicle: Klucel (hydroxypropylcellulose) (HPC)) 95 % of control; (dose: 37.5 mg/kg/injection, schedule: Q04DX002 (ip), vehicle: Klucel (hydroxypropylcellulose) (HPC)) 113 % of control; (dose: 75.0 mg/kg/injection, schedule: Q04DX002 (ip), vehicle: Klucel (hydroxypropylcellulose) (HPC)) 103 % of control; (dose: 150.0 mg/kg/injection, schedule: Q04DX002 (ip), vehicle: Klucel (hydroxypropylcellulose) (HPC)) 98 % of control and 103 % of control; (dose: 300.0 mg/kg/injection, schedule: Q04DX002 (ip), vehicle: Klucel (hydroxypropylcellulose) (HPC)) 87 % of control.
`C[S+](C)C12CC3CC(CC(C3)C1)C2`: the T/C was 108 % of control under setting [1]; 102 % of control (dose: 25.0 mg/kg/injection, schedule: Q04DX002 (ip), vehicle: saline); 94 % of control under setting [2]; 102 % of control under setting [3]; 86 % of control (dose: 100.0 mg/kg/injection, schedule: Q01DX009 (ip), vehicle: saline); 94 % of control and 96 % of control under setting [4].
`NCc1cc2c3c(c1)CCCN3CCC2`: the T/C (dose: 12.5 mg/kg/injection, schedule: Q01DX001 (ip), vehicle: saline) was 111 % of control; the T/C (dose: 12.5 mg/kg/injection, schedule: Q01DX009 (ip), vehicle: saline) was 97 % of control; the T/C (dose: 25.0 mg/kg/injection, schedule: Q01DX001 (ip), vehicle: saline) is 107 % of control; the T/C under setting [1] was 97 % of control; the T/C (dose: 50.0 mg/kg/injection, schedule: Q01DX001 (ip), vehicle: saline) is 105 % of control; the T/C under setting [2] is 104 % of control.
As for `CCCCCCP(=O)(CCCCCC)C1CCCC1`, the T/C is 91 % of control under setting [5] and 92 % of control under setting [6].
As for `COc1cc(C(=O)NNC(=O)C(=O)NNC(=O)c2cc(OC)c(OC)c(OC)c2)cc(OC)c1OC`, the T/C (dose: 6.25 mg/kg/injection, schedule: Q01DX009 (ip), vehicle: Klucel (hydroxypropylcellulose) (HPC)) was 95 % of control; the T/C (dose: 12.5 mg/kg/injection, schedule: Q01DX009 (ip), vehicle: Klucel (hydroxypropylcellulose) (HPC)) is 96 % of control and 101 % of control; the T/C under setting [7] is 102 % of control; the T/C under setting [8] was 92 % of control and 98 % of control and 101 % of control; the T/C under setting [9] is 86 % of control.
As to `c1ccc(N=C(Nc2ccccc2)Nc2ccccc2)cc1`, the T/C reads like this: under setting [7], 94 % of control; (dose: 25.0 mg/kg/injection, schedule: Q04DX002 (ip), vehicle: Klucel (hydroxypropylcellulose) (HPC)) 114 % of control; under setting [8], 94 % of control; (dose: 50.0 mg/kg/injection, schedule: Q04DX002 (ip), vehicle: Klucel (hydroxypropylcellulose) (HPC)) 114 % of control; under setting [9], 90 % of control; under setting [10], 96 % of control and 98 % of control.
With `CC1=CC(=O)NP(=O)(Oc2ccc3ccccc3c2)N1` (stereo not drawn), the T/C by setting is: (dose: 50.0 mg/kg/injection, schedule: Q01DX005 (ip), vehicle: other) 95 % of control; (dose: 100.0 mg/kg/injection, schedule: Q01DX005 (ip), vehicle: other) 96 % of control; (dose: 200.0 mg/kg/injection, schedule: Q01DX005 (ip), vehicle: other) 95 % of control; (dose: 400.0 mg/kg/injection, schedule: Q01DX005 (ip), vehicle: other) 92 % of control.
As for `Fc1ccc2[nH]c3cc4ccncc4cc3c2c1`, the T/C runs as follows: under setting [3], 101 % of control; under setting [4], 94 % of control; (dose: 200.0 mg/kg/injection, schedule: Q04DX002 (ip), vehicle: saline) 94 % of control.
Turning to `Cc1ccc2c(Cl)ccc(Cl)c2n1`, the T/C under setting [10] was 90 % of control; the T/C (dose: 100.0 mg/kg/injection, schedule: Q04DX002 (ip), vehicle: carboxymethylcellulose (CMC)) is 98 % of control and 90 % of control; the T/C (dose: 100.0 mg/kg/injection, schedule: Q04DX003 (ip), vehicle: carboxymethylcellulose (CMC)) was 95 % of control; the T/C (dose: 200.0 mg/kg/injection, schedule: Q04DX002 (ip), vehicle: Klucel (hydroxypropylcellulose) (HPC)) is 90 % of control; the T/C (dose: 200.0 mg/kg/injection, schedule: Q04DX002 (ip), vehicle: carboxymethylcellulose (CMC)) is 94 % of control and 91 % of control; the T/C (dose: 200.0 mg/kg/injection, schedule: Q04DX003 (ip), vehicle: carboxymethylcellulose (CMC)) was 104 % of control. Further, the T/C by setting is: (dose: 400.0 mg/kg/injection, schedule: Q04DX002 (ip), vehicle: Klucel (hydroxypropylcellulose) (HPC)) 105 % of control; (dose: 400.0 mg/kg/injection, schedule: Q04DX002 (ip), vehicle: carboxymethylcellulose (CMC)) 92 % of control.
Consider `c1ccc(-c2cc3c(cc2-c2ccccc2)C(c2ccccc2)(c2ccccc2)c2nc4ccccc4nc2-3)cc1`, for which the T/C runs as follows: under setting [5], 95 % of control; under setting [6], 93 % of control; (dose: 400.0 mg/kg/injection, schedule: Q04DX003 (ip), vehicle: saline with Tween-80) 91 % of control.
As for `Nc1ncnc2c(C3OC(CO)C(O)C3O)[nH]nc12` (stereo not drawn), the T/C is 95 % of control (dose: 5.0 mg/kg/injection, schedule: Q01DX015 (ip), vehicle: carboxymethylcellulose (CMC)); 109 % of control (dose: 10.0 mg/kg/injection, schedule: Q01DX015 (ip), vehicle: carboxymethylcellulose (CMC)); 119 % of control (dose: 12.5 mg/kg/injection, schedule: Q01DX009 (ip), vehicle: saline with Tween-80); 111 % of control (dose: 20.0 mg/kg/injection, schedule: Q01DX015 (ip), vehicle: carboxymethylcellulose (CMC)); 98 % of control (dose: 25.0 mg/kg/injection, schedule: Q01DX009 (ip), vehicle: saline with Tween-80); 109 % of control (dose: 50.0 mg/kg/injection, schedule: Q01DX001 (ip), vehicle: carboxymethylcellulose (CMC)). For the same compound, the T/C was 111 % of control under setting [11]; 108 % of control (dose: 100.0 mg/kg/injection, schedule: Q01DX001 (ip), vehicle: saline); 114 % of control under setting [5]; 100 % of control and 117 % of control (dose: 133.0 mg/kg/injection, schedule: Q04DX003 (ip), vehicle: saline with Tween-80); 115 % of control under setting [12]; 111 % of control under setting [6]. In addition, the T/C (dose: 300.0 mg/kg/injection, schedule: Q04DX003 (ip), vehicle: saline with Tween-80) was 88 % of control.
Consider `CCOC(=O)C(CCC#N)C1=NC(C)(C)CC(C)O1` (stereo not drawn), for which the T/C was 97 % of control (dose: 100.0 mg/kg/injection, schedule: Q01DX001 (ip), vehicle: Klucel (hydroxypropylcellulose) (HPC)); 101 % of control (dose: 200.0 mg/kg/injection, schedule: Q01DX001 (ip), vehicle: Klucel (hydroxypropylcellulose) (HPC)); 103 % of control (dose: 400.0 mg/kg/injection, schedule: Q01DX001 (ip), vehicle: Klucel (hydroxypropylcellulose) (HPC)).
As for `CCCCCC[Si](C)(C)C`, the T/C reads like this: under setting [11], 89 % of control; under setting [12], 91 % of control; (dose: 400.0 mg/kg/injection, schedule: Q01DX001 (ip), vehicle: carboxymethylcellulose (CMC)) 89 % of control.
Regarding `COc1cc2c3c(c4cc(OC)c(OC)cc4c2cc1OC)CN1CCC[C@H]1C3`, the T/C runs as follows: (dose: 4.0 mg/kg/injection, schedule: Q01DX015 (ip), vehicle: water) 100 % of control; (dose: 6.0 mg/kg/injection, schedule: Q01DX015 (ip), vehicle: water) 100 % of control; (dose: 6.25 mg/kg/injection, schedule: Q01DX015 (ip), vehicle: water) 112 % of control; (dose: 8.0 mg/kg/injection, schedule: Q01DX Z (ip), vehicle: water) 107 % of control; (dose: 9.0 mg/kg/injection, schedule: Q01DX015 (ip), vehicle: water) 112 % of control; (dose: 12.0 mg/kg/injection, schedule: Q01DX Z (ip), vehicle: water) 100 % of control. The T/C was 117 % of control (dose: 14.0 mg/kg/injection, schedule: Q01DX015 (ip), vehicle: water); 108 % of control (dose: 15.0 mg/kg/injection, schedule: Q02DX Z (ip), vehicle: water); 98 % of control (dose: 25.0 mg/kg/injection, schedule: Q01DX015 (ip), vehicle: water); 150 % of control (dose: 30.0 mg/kg/injection, schedule: Q02DX Z (ip), vehicle: water); 154 % of control (dose: 250.0 mg/kg/injection, schedule: Q01DX Z (ip), vehicle: saline).
